Measurements reported in patent US4731451A, “N-((2-oxo-3(2H)benzothiazolyl)methyl)-2-chloroacetanilides” (Monsanto Company, priority 1980, dated 1988).

Legend:
Format in all cases: in vivo
Lambsquarters [1] = assay: Pre-emergent herbicidal activity (Table III)
Method in brief: (§1)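 Seeds or vegetative propagules sown in top soil in pans, then covered with soil mixed with a known amount of active ingredient (solvent or wettable-powder suspension). Greenhouse grown, watered from below; injury rated on a fixed percent-injury scale about 2-3 weeks after seeding and treatment.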

Downy Brome [2] = assay: Pre-emergent herbicidal activity (Table III)
Method in brief: as §1

Soybean = assay: Pre-emergent herbicidal activity (Table III)
Method in brief: as §1

Wild Buckwheat = assay: Pre-emergent herbicidal activity (Table III)
Method in brief: as §1

Smartweed [3] = assay: Pre-emergent herbicidal activity (Table III)
Method in brief: as §1

Cocklebur [4] = assay: Pre-emergent herbicidal activity (Table III)
Method in brief: as §1

Morningglory [5] = assay: Pre-emergent herbicidal activity (Table III)
Method in brief: as §1

Velvetleaf [6] = assay: Pre-emergent herbicidal activity (Table III)
Method in brief: as §1

Hemp Sesbania = assay: Pre-emergent herbicidal activity (Table III)
Method in brief: as §1

Wheat = assay: Pre-emergent herbicidal activity (Table III)
Method in brief: as §1

Sorghum = assay: Pre-emergent herbicidal activity (Table III)
Method in brief: as §1

Panicum = assay: Pre-emergent herbicidal activity (Table III)
Method in brief: as §1

Rice = assay: Pre-emergent herbicidal activity (Table III)
Method in brief: as §1

Sugarbeet = assay: Pre-emergent herbicidal activity (Table III)
Method in brief: as §1

Crabgrass = assay: Pre-emergent herbicidal activity (Table III)
Method in brief: as §1

Barnyardgrass [7] = assay: Pre-emergent herbicidal activity (Table III)
Method in brief: as §1

Lambsquarters [8] = assay: Pre-emergent herbicidal activity (Table II); conditions: 2-3 weeks
Method in brief: (§2)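 Active ingredient, in solvent or as wettable powder suspension, mixed into cover soil over seeds or propagules in pans; bottom-watered in greenhouse. Percent injury rated on a fixed scale about 2-3 weeks after seeding and treatment.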

Canada Thistle = assay: Pre-emergent herbicidal activity (Table II); conditions: 2-3 weeks
Method in brief: as §2

Downy Brome [9] = assay: Pre-emergent herbicidal activity (Table II); conditions: 2-3 weeks
Method in brief: as §2

Quackgrass = assay: Pre-emergent herbicidal activity (Table II); conditions: 2-3 weeks
Method in brief: as §2

Smartweed [10] = assay: Pre-emergent herbicidal activity (Table II); conditions: 2-3 weeks
Method in brief: as §2

Cocklebur [11] = assay: Pre-emergent herbicidal activity (Table II); conditions: 2-3 weeks
Method in brief: as §2

Morningglory [12] = assay: Pre-emergent herbicidal activity (Table II); conditions: 2-3 weeks
Method in brief: as §2

Velvetleaf [13] = assay: Pre-emergent herbicidal activity (Table II); conditions: 2-3 weeks
Method in brief: as §2

Johnsongrass = assay: Pre-emergent herbicidal activity (Table II); conditions: 2-3 weeks
Method in brief: as §2

Yellow Nutsedge = assay: Pre-emergent herbicidal activity (Table II); conditions: 2-3 weeks
Method in brief: as §2

Barnyardgrass [14] = assay: Pre-emergent herbicidal activity (Table II); conditions: 2-3 weeks
Method in brief: as §2
Further: ranges in brackets are in %.

Substance: N--[(2-oxo-3(2H)--benzothiazolyl)methyl]-N--(2-ethyl-6-methyl-1-cyclohexen-1-yl)-2-chloro-acetamide, mixed with its -N--[(2-oxo-3(2H)--benzothiazolyl)methyl]-N--(2-methyl-6-ethyl-1-cyclohexen-1-yl)-2-chloroacetamide [Example 4]
- Herbicidal rating (Lambsquarters [1]; 0.28 kg/ha): 0 (0-24)
- Herbicidal rating (Lambsquarters [1]; 1.12 kg/ha): 2 (50-74)
- Herbicidal rating (Lambsquarters [1]; 5.6 kg/ha): 3 (75-100)
- Herbicidal rating (Downy Brome [2]; 0.28 kg/ha): 0 (0-24)
- Herbicidal rating (Downy Brome [2]; 1.12 kg/ha): 0 (0-24)
- Herbicidal rating (Downy Brome [2]; 5.6 kg/ha): 0 (0-24)
- Herbicidal rating (Soybean; 0.28 kg/ha): 0 (0-24)
- Herbicidal rating (Soybean; 1.12 kg/ha): 0 (0-24)
- Herbicidal rating (Soybean; 5.6 kg/ha): 0 (0-24)
- Herbicidal rating (Wild Buckwheat; 0.28 kg/ha): 0 (0-24)
- Herbicidal rating (Wild Buckwheat; 1.12 kg/ha): 0 (0-24)
- Herbicidal rating (Wild Buckwheat; 5.6 kg/ha): 0 (0-24)
- Herbicidal rating (Smartweed [3]; 0.28 kg/ha): 0 (0-24)
- Herbicidal rating (Smartweed [3]; 1.12 kg/ha): 3 (75-100)
- Herbicidal rating (Smartweed [3]; 5.6 kg/ha): 3 (75-100)
- Herbicidal rating (Cocklebur [4]; 1.12 kg/ha): 0 (0-24)
- Herbicidal rating (Cocklebur [4]; 5.6 kg/ha): 3 (75-100)
- Herbicidal rating (Morningglory [5]; 0.28 kg/ha): 1 (25-49)
- Herbicidal rating (Morningglory [5]; 1.12 kg/ha): 0 (0-24)
- Herbicidal rating (Morningglory [5]; 5.6 kg/ha): 1 (25-49)
- Herbicidal rating (Velvetleaf [6]; 0.28 kg/ha): 0 (0-24)
- Herbicidal rating (Velvetleaf [6]; 1.12 kg/ha): 0 (0-24)
- Herbicidal rating (Velvetleaf [6]; 5.6 kg/ha): 0 (0-24)
- Herbicidal rating (Hemp Sesbania; 0.28 kg/ha): 0 (0-24)
- Herbicidal rating (Hemp Sesbania; 1.12 kg/ha): 0 (0-24)
- Herbicidal rating (Hemp Sesbania; 5.6 kg/ha): 3 (75-100)
- Herbicidal rating (Wheat; 0.28 kg/ha): 0 (0-24)
- Herbicidal rating (Wheat; 1.12 kg/ha): 0 (0-24)
- Herbicidal rating (Wheat; 5.6 kg/ha): 0 (0-24)
- Herbicidal rating (Sorghum; 0.28 kg/ha): 0 (0-24)
- Herbicidal rating (Sorghum; 1.12 kg/ha): 0 (0-24)
- Herbicidal rating (Sorghum; 5.6 kg/ha): 0 (0-24)
- Herbicidal rating (Panicum; 0.28 kg/ha): 0 (0-24)
- Herbicidal rating (Panicum; 1.12 kg/ha): 0 (0-24)
- Herbicidal rating (Panicum; 5.6 kg/ha): 2 (50-74)
- Herbicidal rating (Rice; 0.28 kg/ha): 0 (0-24)
- Herbicidal rating (Rice; 1.12 kg/ha): 0 (0-24)
- Herbicidal rating (Rice; 5.6 kg/ha): 1 (25-49)
- Herbicidal rating (Sugarbeet; 0.28 kg/ha): 1 (25-49)
- Herbicidal rating (Sugarbeet; 1.12 kg/ha): 0 (0-24)
- Herbicidal rating (Sugarbeet; 5.6 kg/ha): 1 (25-49)
- Herbicidal rating (Crabgrass; 0.28 kg/ha): 2 (50-74)
- Herbicidal rating (Crabgrass; 1.12 kg/ha): 3 (75-100)
- Herbicidal rating (Crabgrass; 5.6 kg/ha): 3 (75-100)
- Herbicidal rating (Barnyardgrass [7]; 0.28 kg/ha): 0 (0-24)
- Herbicidal rating (Barnyardgrass [7]; 1.12 kg/ha): 3 (75-100)
- Herbicidal rating (Barnyardgrass [7]; 5.6 kg/ha): 3 (75-100)
- Herbicidal rating (Lambsquarters [8]; 5.6 kg/ha): 1 (25-49)
- Herbicidal rating (Lambsquarters [8]; 11.2 kg/ha): 3 (75-100)
- Herbicidal rating (Canada Thistle; 5.6 kg/ha): 1 (25-49)
- Herbicidal rating (Canada Thistle; 11.2 kg/ha): 2 (50-74)
- Herbicidal rating (Downy Brome [9]; 5.6 kg/ha): 1 (25-49)
- Herbicidal rating (Downy Brome [9]; 11.2 kg/ha): 1 (25-49)
- Herbicidal rating (Quackgrass; 5.6 kg/ha): 0 (0-24)
- Herbicidal rating (Quackgrass; 11.2 kg/ha): 0 (0-24)
- Herbicidal rating (Smartweed [10]; 5.6 kg/ha): 0 (0-24)
- Herbicidal rating (Smartweed [10]; 11.2 kg/ha): 0 (0-24)
- Herbicidal rating (Cocklebur [11]; 5.6 kg/ha): 0 (0-24)
- Herbicidal rating (Cocklebur [11]; 11.2 kg/ha): 0 (0-24)
- Herbicidal rating (Morningglory [12]; 5.6 kg/ha): 0 (0-24)
- Herbicidal rating (Morningglory [12]; 11.2 kg/ha): 0 (0-24)
- Herbicidal rating (Velvetleaf [13]; 5.6 kg/ha): 0 (0-24)
- Herbicidal rating (Velvetleaf [13]; 11.2 kg/ha): 0 (0-24)
- Herbicidal rating (Johnsongrass; 5.6 kg/ha): 0 (0-24)
- Herbicidal rating (Johnsongrass; 11.2 kg/ha): 3 (75-100)
- Herbicidal rating (Yellow Nutsedge; 5.6 kg/ha): 0 (0-24)
- Herbicidal rating (Yellow Nutsedge; 11.2 kg/ha): 0 (0-24)
- Herbicidal rating (Barnyardgrass [14]; 5.6 kg/ha): 3 (75-100)
- Herbicidal rating (Barnyardgrass [14]; 11.2 kg/ha): 3 (75-100)
